# Experimental data taken from US8039505B2, “Compounds for modulating T-cells” (University of Utah Research Foundation, priority 2007, dated 2011).
# “Also recorded” adds a separate entry of the source.
# Tested on: cell cycle in zebrafish embryos
# Assay: Cell cycle profiles in zebrafish embryos (propidium iodide, flow cytometry)
# Format: in vivo
# Conditions: zebrafish embryos incubated from 4 hours post fertilization overnight, DNA content by flow cytometry
# Protocol: FIG. 2 is a group of cell cycle profiles of active compounds tested in 24 hour zebrafish embryos. Specifically, embryos incubated with E3 fishwater (panel A), hydroxyurea (panel B), compound C4 (panel C), and compound C3 (panel D) are shown. After overnight incubation, single cell solution of embryos was prepared and incubated with propidium iodide. Samples were then subjected to flow cytometry to determine DNA content (X axis). Small arrowheads below the X-axis are placed beneath the diploid (G1) n=2 peak, and the tetraploid (G2/M) n=4 peaks. Cells between these two peaks are in S phase. Cells to the left of the G1 peak (sub G1 peak) have lost chromosomes (n<2), and are presumably dying (indicated as % debris in the right hand legend of each panel). Relative numbers of cells (Y-axis) in the different phases of the cell cycle are given on the right side of each panel.
# All of these compounds were tested for effects on the cell cycle in zebrafish embryos. Zebrafish embryos were incubated at 4 hours post fertilization with compounds or controls. After overnight incubation in compounds, single cell solution of embryos was prepared and incubated with propidium iodide. Samples were then subjected to flow cytometry to determine DNA content. […] Examples are depicted in FIG. 2.
# In FIG. 2, embryos incubated with (A) E3 fishwater, (B) hydroxyurea, (C) compound C4, and (D) C3 are shown. Diploid (G1, n=2) and tetraploid (G2/M, n=4) peaks are identified on the X-axis. Small arrowheads below the X-axis are placed beneath the dipoid (G1) n=2 peak, and the tetraploid (G2/M) n=4 peaks. Cells between these two peaks are in S phase. Cells to the left of the G1 peak (sub G1 peak) have lost chromosomes (n<2) and are presumably dying (indicated as % debris in the right hand legend of each panel). Relative numbers of cells (Y axis) in the different phases of the cell cycle are given on the right side of each panel.
smiles,measurement,setting,value
"C(=NNc1cccc2cccnc12)c1c[nH]c2ccccc12 [Compound C3, 1H-indole-3-carbaldehyde quinolin-8-ylhydrazone]",Effect on the cell cycle,,lack of cell cycle effects
same,Effect on the cell cycle,listed as 3,did not have any appreciable effect on the cell cycle; also recorded: does not affect the cell cycle
